Values quoted from earlier work in the PKSmart pharmacokinetics tables (Seal et al. 2025).
Where a SMILES comes first, the peptide text is derived from it. [ ]: non-standard residue; d: D form. The star is where a group is joined. ξ: configuration not given here. ξNMe2Val = CC(C)C(C(=O)*)N(C)C; NMeV = CN[CH](C(=O)O)C(C)C; NHtBu = CC(C)(C)N*

Experiment: Lombardo, Berellini, Obach 2018, Drug Metab Dispos 46:1466, doi 10.1124/dmd.118.082966
Details: human; for MRT / Vd / clearance / half-life: in vivo, iv; for fraction unbound: plasma

Row | Compound | MRT [h] | Vd [L/kg] | clearance [mL/min/kg] | half-life [h] | fraction unbound
1 | CCc1nc(N)nc(N)c1-c1ccc(Cl)cc1 | 140 | 0.43 | 0.052 | 140 | 0.095
2 | O=C(NC[C@H](O)CO)c1ccncc1Nc1ccc(I)cc1F | 3.55 | 1.8 | 8.71 | 4.59 | –
3 | N#Cc1ccccc1-c1cc(-c2ccccn2)cn(-c2ccccc2)c1=O | 229 | 1.36 | 0.1 | 183 | 0.05
4 | CN/C(=N\CCSCc1nc[nH]c1C)NC#N | 2.5 | 1.2 | 8.1 | 2.2 | –
5 | CNCC[C@@H](O)[C@@H]1C[C@H](SC2=C(C(=O)O)N3C(=O)C([C@@H](C)O)[C@H]3[C@H]2C)CN1 (some centres undefined) | 2.04 | 0.22 | 2.02 | 1.48 | –
6 | NC(CCC(=O)NC(CS(=O)(=O)CCOP(=O)(N(CCCl)CCCl)N(CCCl)CCCl)C(=O)NC(C(=O)O)c1ccccc1)C(=O)O (centres undefined) | 0.27 | 0.46 | 28.5 | 0.28 | –
7 | CS(=O)(=O)c1ccc([C@@H](O)[C@@H](COC(=O)CN)NC(=O)C(Cl)Cl)cc1 | 0.23 | 0.13 | 9.6 | 0.28 | 0.27
8 | Cc1nc2n(c(=O)c1CCN1CCC(c3noc4cc(F)ccc34)CC1)CCCC2O (centres undefined) | – | – | 1.18 | 24.6 | 0.24
9 | C=Cc1c(C)c2[nH]c1=Cc1[nH]c(c(=CCC(=O)OC)c1C)=Cc1[nH]c(c(C)c1CCC(=O)O)C=C1NC(=C3C=CC(C(=O)OC)=C(C(=O)OC)[C@@]13C)C=2 | 4.9 | 0.51 | 1.73 | 6.06 | –
10 | O=c1ccc2ccc(OCCCCN3CCN(c4cccc5sccc45)CC3)cc2[nH]1 | 71 | 1.46 | 0.34 | 54.4 | 0.002
11 | Cc1ccccc1C(=O)Nc1ccc(C(=O)N2CCC[C@H](O)c3cc(Cl)ccc32)c(C)c1 | 3.5 | 0.5 | 2.4 | 2.9 | 0.01
12 | C[C@@H](O[C@H]1OCCN(Cc2n[nH]c(=O)[nH]2)[C@H]1c1ccc(F)cc1)c1cc(C(F)(F)F)cc(C(F)(F)F)c1 | – | 0.94 | – | 13 | –
13 | CCCc1c2oc(C(=O)O)cc(=O)c2cc2c(=O)cc(C(=O)O)n(CC)c12 | 0.7 | 0.43 | 10.2 | 0.9 | 0.11
14 | Nc1nc(N/N=C/C2CCCCC2)nc2c1ncn2[C@@H]1O[C@H](CO)[C@@H](O)[C@H]1O | 0.19 | 0.4 | 35.8 | 0.21 | –
15 | CNC(=O)c1ccccc1Sc1ccc2c(/C=C/c3ccccn3)n[nH]c2c1 | – | – | 5 | 4.3 | 0.004
16 | Cc1nc2c([nH]1)-c1ccccc1N(C(=O)c1ccc(NC(=O)c3ccccc3-c3ccccc3)cc1)CC2 | 4.2 | 0.76 | – | 6.7 | –
17 | COc1c(N2CCC/C(=C(\F)CN)C2)c(F)cc2c(=O)c(C(=O)O)cn(C3CC3)c12 | 24.2 | 1.13 | 0.78 | 19.6 | 0.34
18 | CC(C)C(NC(=O)C(C(C)C)N(C)C)C(=O)N(C)C(C(=O)N1CCCC1C(=O)N1CCCC1C(=O)NC(C)(C)C)C(C)C (centres undefined) (ξNMe2Val-V[NMeV]PP-NHtBu; configuration not given here) | 0.58 | 0.33 | 9.6 | 0.57 | –
19 | CN1CC[C@]23c4c5ccc(O)c4O[C@H]2[C@@H](O[C@@H]2OC(C(=O)O)[C@@H](O)[C@H](O)[C@H]2O)C=C[C@H]3[C@H]1C5 (some centres undefined) | 0.91 | 0.12 | 2.2 | 1.4 | 0.67
20 | CC(CCc1ccccc1)NCC(O)c1ccc(O)c(C(N)=O)c1 (centres undefined) | – | – | 23 | 4.4 | –
21 | CN1C(=O)C(O)N=C(c2ccccc2Cl)c2cc(Cl)ccc21 (centres undefined) | 6.7 | 1.6 | 4 | 4.9 | –
22 | CO[C@H]1C[C@@H](O[C@@H]2C(C)C(=O)O[C@H](C)[C@H](C)[C@H](O)C(C)C(=O)[C@@]3(CO3)C[C@H](C)[C@H](O[C@H]3O[C@@H](C)C[C@@H](N(C)C)[C@H]3O)[C@H]2C)O[C@@H](C)[C@@H]1O (some centres undefined) | 1.41 | 0.77 | 9.1 | 1.05 | 0.4

Row | Compound | MRT [h] | Vd [L/kg] | clearance [mL/min/kg] | half-life [h] | fraction unbound
23 | O=C(NC1CCN(CCc2c[nH]c3ccccc23)CC1)c1ccccc1 | 4.1 | 4.9 | 20 | 4.3 | 0.15
24 | O=P(O)(O)C(Cl)(Cl)P(=O)(O)O | 9.2 | 0.88 | 1.6 | 43.2 | 0.64
25 | CC(C)NC[C@H](O)COc1ccc(O)cc1 | 3.23 | 4.28 | 22.1 | 2.85 | –
26 | C[C@@]12CCCCC[C@@H](Cc3ccc(O)cc31)[C@@H]2N | 4.6 | 5.6 | 27.5 | 3.9 | 0.08
27 | Nc1nc(=O)n([C@H]2C[C@H](O)[C@@H](CO)O2)cc1F | 2.98 | 0.91 | 5.09 | 0.78 | –
28 | Cc1ccc2c(-c3ccccc3)nc(=O)n(C(C)C)c2c1 | 0.92 | 0.52 | 9.45 | 1.27 | 0.02
29 | COc1c(-c2ccc3cc(NS(C)(=O)=O)ccc3c2)cc(-n2ccc(=O)[nH]c2=O)cc1C(C)(C)C | – | 2.13 | – | 5.7 | 0.005
30 | O=c1[nH]c(=O)n([C@@H]2O[C@H](CO)[C@H](O)[C@H](O)[C@H]2O)cc1F | 3.95 | 0.33 | 1.38 | 4.21 | –
31 | Nc1n[n+]([O-])c2ccccc2[n+]1[O-] | – | – | – | – | 0.81
32 | C[C@@H]([C@@H](O)c1ccc(O)cc1)N1CCC(O)(c2ccccc2)CC1 | 2.6 | 4.4 | 27 | 3.7 | 0.63
33 | COc1cc2ncnc(Nc3ccc(F)c(Cl)c3)c2cc1OCCCN1CCOCC1 | 32 | 23 | – | 34 | –
34 | CCCOC(C(=O)OC1CCN(C)CC1)(c1ccccc1)c1ccccc1 | 15.4 | 2.73 | 2.94 | 15.2 | 0.1
35 | CC(Oc1ccc(Oc2cnc3ccc(Cl)cc3n2)cc1)C(=O)O (centres undefined) | 63 | 0.19 | 0.05 | 48.2 | 0.0036
36 | CCC(=O)O[C@H](CC(=O)[O-])C[N+](C)(C)C | 2.15 | 0.3 | 2.33 | 1.28 | –
37 | CN(C)[C@@H]1C(O)=C(C(N)=O)C(=O)[C@@]2(O)C(O)=C3C(=O)c4c(O)c(NC(=O)CN5CCCC5)cc(F)c4C[C@H]3C[C@@H]12 | 10.3 | 2.3 | 3.71 | – | 0.18
38 | CO[C@@H]1[C@@H](O[C@@H]2O[C@H](C)[C@@H](O[C@H]3C[C@@](C)(O)[C@@H](O)[C@H](C)O3)[C@H](N(C)C)[C@H]2O)[C@@H](CC=O)C[C@@H](C)[C@@H](O[C@H]2CC[C@@H](N(C)C)[C@H](C)O2)C=CC=CC[C@@H](C)OC(=O)C[C@H]1O | 7 | – | 12.8 | 5.2 | 0.26
39 | Cc1c(Cl)cccc1Nc1ccccc1C(=O)O | 1.13 | 0.16 | 2.37 | 2.15 | 0.003
40 | CN(C)[C@@H]1C(O)=C(C(=O)NCN2CCCC2)C(=O)[C@@]2(O)C(O)=C3C(=O)c4c(O)cccc4[C@@](C)(O)[C@H]3C[C@@H]12 | 9.3 | 0.54 | 0.97 | 8.8 | 0.5
41 | CC(NCc1ccc(OCc2cccc(F)c2)cc1)C(N)=O (centres undefined) | 31.2 | 2.19 | 1.17 | 21.7 | –
42 | CC(=O)NC(CSSCC(N)C(=O)O)C(=O)NC(C)C(=O)NC(CCCNC(=N)N)C(=O)NC(CCCNC(=N)N)C(=O)NC(CCCNC(=N)N)C(=O)NC(C)C(=O)NC(CCCNC(=N)N)C(N)=O (centres undefined) | 19.9 | 1.98 | 1.67 | – | –
43 | CC(=O)O[C@H]1C[C@]2(O)[C@H]3CC[C@H]4C[C@H](O[C@H]5C[C@@H](O)[C@@H](O[C@H]6C[C@@H](O)[C@@H](O[C@H]7C[C@@H](O)[C@@H](O)[C@H](C)O7)[C@H](C)O6)[C@H](C)O5)CC[C@@]4(C)[C@H]3CC[C@]2(C)[C@H]1C1=CC(=O)OC1 | 72.3 | 0.78 | 8.7 | 51.6 | 0.07
44 | Cc1ncsc1CCCl | 3.3 | 6.6 | 33 | 4.5 | 0.36

Row | Compound | MRT [h] | Vd [L/kg] | clearance [mL/min/kg] | half-life [h] | fraction unbound
45 | CCC(=O)NCC[C@@H]1CCc2ccc3c(c21)CCO3 | 1.3 | 1.05 | 13.1 | 1.9 | 0.2
46 | CCN1CCC[C@H]1CNC(=O)c1c(O)c(Cl)cc(Cl)c1OC | 15.3 | 1.1 | 1.2 | 14 | 0.06
47 | CN(C)CCCOc1nn(Cc2ccccc2)c2ccccc12 | 11.4 | 1.53 | 2.28 | 8.1 | 0.8
48 | NCCCCC(NC(CCc1ccccc1)C(=O)O)C(=O)N1CCCC1C(=O)O (centres undefined) | – | – | 1.2 | – | –
49 | CC(C(=O)O)c1ccc2c(c1)[nH]c1ccc(Cl)cc12 (centres undefined) | 7.2 | 0.22 | 0.51 | 9.9 | 0.001
50 | Cc1onc(-c2c(F)cccc2Cl)c1C(=O)NC1C(=O)N2C(C(=O)O)C(C)(C)S[C@H]12 (some centres undefined) | 1.3 | 0.19 | 2.4 | 1.4 | 0.043
51 | CN1c2ccccc2[C@@H](NCCCCCCC(=O)O)c2ccc(Cl)cc2S1(=O)=O | 1.9 | 0.3 | 2.8 | 1.4 | –
52 | C/C(=C\[C@H](C(C)C)N(C)C(=O)C(NC(=O)C1CCCCN1C(C)C)C(C)(C)C)C(=O)O (some centres undefined) | 21.5 | 1.26 | 0.97 | 17.5 | –
53 | CCOC(=O)Nc1ccc(NCc2ccc(F)cc2)cc1N | 5 | 2.5 | 8.3 | 9 | 0.2
54 | CC(C)(O)[C@@H]1CC[C@](C)([C@H]2[C@@H](O)C[C@@]3(C)[C@@H]4C[C@H](O[C@@H]5O[C@H](CO)[C@@H](O)[C@H](O)[C@H]5O)[C@H]5C(C)(C)[C@@H](O[C@@H]6OC[C@@H](O)[C@H](O)[C@H]6O)CC[C@@]56C[C@@]46CC[C@]23C)O1 | 2.78 | 0.12 | 0.74 | 2.65 | 0.14
55 | CCC(=O)O[C@]1(C(=O)SCF)[C@H](C)C[C@H]2[C@@H]3C[C@H](F)C4=CC(=O)C=C[C@]4(C)[C@@]3(F)[C@@H](O)C[C@@]21C | 3.9 | 3.6 | 17 | 6 | 0.1
56 | Cc1cc(NC(=O)C2C(=O)c3ccccc3S(=O)(=O)N2C)no1 (centres undefined) | 44 | 0.19 | 0.07 | 33 | –
57 | NC(O)=NO | 4.8 | 0.52 | 1.5 | 3.4 | –
58 | CCCCCc1cc(O)c2c(c1)OC(C)(C)[C@@H]1CCC(C(=O)O)=C[C@@H]21 | 18.1 | 1.28 | 1.2 | 17.6 | –
59 | C=CCNc1c(O)cc2c(O)c1C=C(C)C[C@H](OC)[C@H](O)[C@@H](C)/C=C(\C)[C@H](OC(N)=O)[C@@H](OC)C=CC=C(C)C(=O)N2 | 3.27 | 2 | 10.2 | 3 | –
60 | C=CC[N@@+]12CC[C@@]34c5ccccc5N5C=C6[C@H]7C[C@H]8[C@@]9(CC[N@@+]8(CC=C)C/C7=C/CO)c7ccccc7N(C=C([C@@H](C[C@@H]31)/C(=C\CO)C2)[C@H]54)[C@@H]69 | 4.1 | 0.32 | 1.3 | 3.6 | –
61 | NS(=O)(=O)c1cc2c(cc1C(F)(F)F)NCNS2(=O)=O | 3.8 | 2.2 | 9.7 | 5.2 | –
62 | Clc1cccc(Cl)c1NC1=NCCN1 | 14 | 3.3 | 4 | 7.6 | 0.56
63 | Nc1nc2[nH]cc(CCc3ccc(C(=O)NC(CCC(=O)O)C(=O)O)cc3)c2c(=O)[nH]1 (centres undefined) | 1.92 | 0.15 | 1.3 | 1.85 | –
64 | COc1ccc2[nH]c3c(c2c1)CCN[C@]31CS[C@@H]2c3c(OC(C)=O)c(C)c4c(c3[C@H](COC1=O)N1[C@@H]2[C@H]2c3c(cc(C)c(OC)c3O)C[C@@H]([C@@H]1O)N2C)OCO4 | 44 | 7.3 | 2.76 | 50.7 | –
65 | CC1(C)S[C@@H]2C(NC(=O)Cc3ccccc3)C(=O)N2C1C(=O)O (some centres undefined) | 0.58 | 0.24 | 6.9 | 0.7 | 0.4
